# Measured values taken from US12454510B2, “Isophthalamide compound and use thereof” (METISA BIOTECHNOLOGY CO., LTD, priority 2019, dated 2025).
# Read-outs that look alike come from different tables or passages of the source.
# Experiments:
# Assay type in all cases: in vivo
# Leucania separata = assay: Insecticidal activity against Leucania separata, airbrush spray on corn leaf sections; settings: Mythimna separata, 72 h; dose 0.05 mg/L, 3 days after the treatment, 3rd instar larvae; read-out: lethality rate against Leucania separata
# Experimental: (§1) After being dissolved in a mixed solvent of acetone/methanol (1:1), the test compound was diluted with water containing 0.1% (wt) Tween 80 to the desired concentration.
# (§2) With Leucania separata, Plutella xylostella, and Chilo suppressalis as targets, airbrush spray method was used for the determination of the insecticidal activity.
# (§3) Determination method: Corn leaves were cut into 2 cm leaf sections, and Airbrush spray treatment was carried out at a pressure of 10 psi (approximately 0.7 kg/cm^2) on the front and back sides of each leaf section, with a spray volume of the compound to be tested of 0.5 ml. After drying in the shade, 10 of 3rd instar larvae were introduced for each treatment, and each treatment was repeated 3 times. After the treatment, it was placed in an observation room at 25° C. and a relative humidity of 60-70%, and 3 days after the treatment, the number of surviving insects was investigated, and the mortality rate was calculated.
# Chilo suppressalis = assay: Insecticidal activity against Chilo suppressalis, sprayed Oryza sativa seedlings/stalks; settings: Chilo suppressalis, 72 h, 3 days after the treatment, 3rd instar larvae, read-out: lethality rate against Chilo suppressalis; for pest or weed control at 0.25 µg/mL: dose 0.25 mg/L; for pest or weed control at 0.5 µg/mL: dose 0.5 mg/L; for pest or weed control at 1 µg/mL: dose 1 mg/L
# Experimental: as §1, §2
# Determination method: 1) Preparation of Oryza sativa seedlings: Oryza sativa was cultivated in a constant temperature room (a temperature of 26-28V, a relative humidity of about 60-80%, and a light illumination of 16 hL:8 hD) in a small plastic cup with a diameter of 4.5 cm and a height of 4 cm, and when the Oryza sativa grew up to the 4-5 leaf stage, robust and consistent Oryza sativa seedlings were selected for chemical treatment, and 3 repetitions were performed for each treatment. 2) Preparation for test insects: Chilo suppressalis at 3rd instar larvae were raised continuously indoors. 3) The Oryza sativa stems were sprayed and insects were introduced. Spraying was performed uniformly on the whole plant of the Oryza sativa seedlings, with 15 ml of compound solution for each treatment. The blank control was treated first, and then the above operations were repeated in the order of the test concentration from low to high. After the Oryza sativa seedlings were sprayed, they were placed in a cool place to dry the liquid, and about 5 cm of stalks at the base of the stems were cut and fed to the test insects. A glass petri dish with a diameter of 90 mm was placed with filter paper at the bottom of the dish, and then was moisturized by adding water. After that, about 5 rice stalks and 10 larvae were placed in each dish, and the petri dish was sealed with a non-woven fabric and placed in a constant temperature room for cultivation. The number of remaining live insects was investigated 3 days after the treatment.
# Plutella xylostella = assay: Insecticidal activity against Plutella xylostella, airbrush spray on cabbage leaf discs; settings: foliar, 72 h
# Experimental: as §1, §2
# as §3, with “Cabbage” for “Corn”, “punched” for “cut”, “into leaf discs with a diameter of” for “into”, “with a puncher,” for “leaf sections,”, “disc,” for “section,”, “times for.” for “times.”
# [1] = dose 0.05 mg/L, 3 days after the treatment, 3rd instar larvae, read-out: lethality rate against Plutella xylostella
# [2] = dose 0.5 mg/L, 3 days after the treatment, 3rd instar larvae, read-out: lethality rate against Plutella xylostella
# [3] = dose 1 mg/L, 3 days after the treatment, 3rd instar larvae, read-out: lethality rate against Plutella xylostella
SMILES,pest or weed control at 0.05 µg/mL (Leucania separata),pest or weed control at 0.25 µg/mL (Chilo suppressalis),pest or weed control at 0.5 µg/mL (Chilo suppressalis),pest or weed control at 1 µg/mL (Chilo suppressalis),pest or weed control at 0.05 µg/mL (Plutella xylostella; [1]),pest or weed control at 0.5 µg/mL (Plutella xylostella; [2]),pest or weed control at 1 µg/mL (Plutella xylostella; [3]),"pest or weed control at 0.05 µg/mL (Plutella xylostella; 0.05 mg/L, parallel comparison test, Table 5, read-out: Lethality rate (%, 3 days after the treatment) 0.05 mg/L)","pest or weed control at 0.5 µg/mL (Plutella xylostella; 0.5 mg/L, parallel comparison test, Table 5, read-out: Lethality rate (%, 3 days after the treatment) 0.5 mg/L)","pest or weed control at 1 µg/mL (Plutella xylostella; 1 mg/L, parallel comparison test, Table 5, read-out: Lethality rate (%, 3 days after the treatment) 1 mg/L)","pest or weed control at 5 µg/mL (Plutella xylostella; 5 mg/L, parallel comparison test, Table 5, read-out: Lethality rate (%, 3 days after the treatment) 5 mg/L)"
N#CCCCN(C(=O)c1ccc(F)nc1)c1cccc(C(=O)Nc2c(Br)cc(C(F)(C(F)(F)F)C(F)(F)F)cc2C(F)(F)F)c1F [Compound 11],≥ 90%,≥ 90%,≥ 90%,≥ 90%,≥ 90%,≥ 90%,≥ 90%,–,–,–,–
N#CCCCCN(C(=O)c1ccc(F)nc1)c1cccc(C(=O)Nc2c(Br)cc(C(F)(C(F)(F)F)C(F)(F)F)cc2C(F)(F)F)c1F [Compound 12],≥ 90%,≥ 90%,≥ 90%,≥ 90%,≥ 90%,≥ 90%,≥ 90%,–,–,–,–
N#CCN(C(=O)c1ccc(F)nc1)c1cccc(C(=O)Nc2c(I)cc(C(F)(C(F)(F)F)C(F)(F)F)cc2C(F)(F)F)c1F [Compound 13],≥ 90%,≥ 90%,≥ 90%,≥ 90%,≥ 90%,≥ 90%,≥ 90%,–,–,–,–
N#CCCN(C(=O)c1ccc(F)nc1)c1cccc(C(=O)Nc2c(I)cc(C(F)(C(F)(F)F)C(F)(F)F)cc2C(F)(F)F)c1F [Compound 14],≥ 90%,≥ 90%,≥ 90%,≥ 90%,≥ 90%,≥ 90%,≥ 90%,–,–,–,–
N#CCCCN(C(=O)c1ccc(F)nc1)c1cccc(C(=O)Nc2c(I)cc(C(F)(C(F)(F)F)C(F)(F)F)cc2C(F)(F)F)c1F [Compound 15],≥ 90%,≥ 90%,≥ 90%,≥ 90%,≥ 90%,≥ 90%,≥ 90%,–,–,–,–
N#CCCCCN(C(=O)c1ccc(F)nc1)c1cccc(C(=O)Nc2c(I)cc(C(F)(C(F)(F)F)C(F)(F)F)cc2C(F)(F)F)c1F [Compound 16],≥ 90%,≥ 90%,≥ 90%,≥ 90%,≥ 90%,≥ 90%,≥ 90%,–,–,–,–
N#CCN(C(=O)c1ccc(C(F)(F)F)nc1)c1cccc(C(=O)Nc2c(Br)cc(C(F)(C(F)(F)F)C(F)(F)F)cc2Br)c1F [Compound 17],≥ 90%,–,–,≥ 90%,–,–,≥ 90%,–,–,–,–
N#CCN(C(=O)c1ccc(C(F)(F)F)nc1)c1cccc(C(=O)Nc2c(Br)cc(C(F)(C(F)(F)F)C(F)(F)F)cc2C(F)(F)F)c1F [Compound 25],≥ 90%,≥ 90%,≥ 90%,≥ 90%,–,≥ 90%,≥ 90%,–,–,–,–
N#CCCN(C(=O)c1ccc(C(F)(F)F)nc1)c1cccc(C(=O)Nc2c(Br)cc(C(F)(C(F)(F)F)C(F)(F)F)cc2C(F)(F)F)c1F [Compound 26],≥ 90%,≥ 90%,≥ 90%,≥ 90%,–,≥ 90%,≥ 90%,73.3%,96.7%,100%,100%
N#CCCCCN(C(=O)c1ccc(C(F)(F)F)nc1)c1cccc(C(=O)Nc2c(Br)cc(C(F)(C(F)(F)F)C(F)(F)F)cc2C(F)(F)F)c1F [Compound 28],≥ 90%,–,≥ 90%,≥ 90%,–,≥ 90%,≥ 90%,–,–,–,–
N#CCN(C(=O)c1ccc(C(F)(F)F)nc1)c1cccc(C(=O)Nc2c(I)cc(C(F)(C(F)(F)F)C(F)(F)F)cc2C(F)(F)F)c1F [Compound 29],≥ 90%,≥ 90%,≥ 90%,≥ 90%,–,≥ 90%,≥ 90%,–,–,–,–
N#CCCCCN(C(=O)c1ccc(C(F)(F)F)nc1)c1cccc(C(=O)Nc2c(I)cc(C(F)(C(F)(F)F)C(F)(F)F)cc2C(F)(F)F)c1F [Compound 32],≥ 90%,–,≥ 90%,≥ 90%,–,≥ 90%,≥ 90%,–,–,–,–
